In patent US20240360107A1, “AN EIF4A INHIBITOR WITH A NOVEL MECHANISM OF ACTION” (ARIZONA BOARD OF REGENTS ON BEHALF OF THE UNIVERSITY OF …, priority 2021, published 2024):
“Also recorded” adds a separate entry of the source.

Key:
Set-up in all cases: 6xHis with TEV protease site (N, cleaved yes); made in house; host or cells: E. coli BL21-CodonPlus
[1] = biological target: T1, eIF4A (Homo sapiens, UniProt P60842); assay: Helicase (duplex unwinding) assay; format: biochemical; details: Cy3-RNA/DNA duplex, 2.5 μM eIF4A, 2 mM ATP
Description: A functional duplex unwinding assay with a duplex nucleic acid substrate was utilized to test if compound 1 and compound 28 could inhibit eIF4A helicase activity. This unwinding assay features a Cy3-labeled RNA strand annealed to a DNA strand with a long overhang that eIF4A can bind (FIG. 9, top right). When ATP is added to protein and substrate, eIF4A unwinds the duplex, leaving an unlabeled DNA strand and a Cy3-labeled single stranded RNA. When visualized on a native gel, the larger intact fluorescent duplex substrate will run higher on the gel than the smaller unwound single-stranded fluorescent RNA. The ratio of these two Cy3 signals can be used to determine the helicase activity of eIF4A in each condition.
Dose responses of compound 1 and compound 28 were conducted using this assay. […] The intensity of each band in each gel lane was quantified by densitometry to obtain IC50 values for compound 1 and compound 28 in this assay. […]
Helicase assay. […] All products were analyzed by electrophoresis on 20% native polyacrylamide (37.5:1 acrylamide:bisacrylamide) gels. Gels were run at 4° C. for 2 hours and Cy3 signal was detected on an Azure 600 Fluorescent Imaging System (Azure Biosystems) at 524 nm:572 nm (Ex:Em). Cy3 signal was quantified by gel band densitometry performed using ImageJ32 (NIH). IC50 values were calculated using GraphPad Prism v6.0.

[2] = biological target: T1, eIF4A; assay: RNA-stimulated malachite green ATPase assay; format: biochemical; details: for IC50: 750 nM eIF4A, 250 μM ATP, 0.25 mg/mL Yeast RNA, 4 h at 37° C.
Description: Human eIF4A protein was produced recombinantly and a greater than 100,000-compound screen for inhibitors was completed using a malachite green ATPase assay (FIG. 11A). […] A stable mixture of yeast RNAs was added in an effort to improve this system and create a more biologically relevant eIF4A assay. eIF4A ATPase activity was accelerated without a statistically significant increase in the background signal in the presence of this RNA (FIG. 11B), and the new conditions gave excellent statistical parameters in a 384-well plate format (FIG. 11C).
ATPase assay. Recombinant WT or mutant eIF4A was added to a clear bottom 384 well plate (Greiner) in ATPase buffer (20 mM Tris pH 7.4, 80 mM KCl, 2.5 mM MgCl2, 1 mM DTT, 1% glycerol). Compounds were added and the plate was incubated at 37° C. for 20 min. ATP/RNA solution was added to afford a 20 μL per well reaction volume with 750 nM eIF4A, 250 μM ATP, and 0.25 mg/mL Yeast RNA (Sigma) for the initial screen and dose responses, and varying concentrations of ATP and RNA for the kinetic assays. The plate was incubated for 4 h at 37° C. for the initial screen and dose responses, and at seven time points (1 hour-7 hours) for kinetic assays. 0.04% v/v (final concentration) Tween-20 was added to a Malachite Green solution, and the Malachite Green (40 μL per well) was added. The solution was incubated for 5 minutes at room temperature and Absorbance at 660 nm was read on a SpectraMax iD5 plate reader (Molecular Devices).

[3] = biological target: T1, eIF4A; assay: FAM-RNA fluorescence polarization assay; format: binding; details: FAM-A(CAA)5 RNA; for IC50: 2 μM eIF4A, read-out: IC50, FAM-RNA FP assay
Description: Next, an FP assay was performed with a fluorescent, eIF4A-binding RNA oligo (FAM-A(CAA)5) as the fluorophore. […] This same assay was used to investigate if changing the identity of the RNA fluorophore affected the ability of compound 28 to compete the RNA off eIF4A. […] This is evidence that compound 28 inhibits the RNA-eIF4A interaction by binding eIF4A and not the RNA.
FAM-RNA fluorescence polarization assay. Oligos were purchased from Integrated DNA Technologies using RNase free preparations. Recombinant eIF4A (2 μM) was incubated with 25 nM FAM-labelled RNA for 30 min in FP Buffer (15 mM HEPES-NaOH (pH 8), 100 mM NaCl, 1 mM MgCl2, 15% glycerol, 2 mM DTT, 2 mM AMPPNP) at 22° C. in low-volume black 384 well plates (Greiner). eIF4A was incubated with compound for 20 min prior to the addition of FAM-RNA. Plate was incubated for another 30 min before fluorescence polarization was read at 485:535 nm (Ex:Em) on a SpectraMax iD5 plate reader (Molecular Devices. IC50 values were calculated using GraphPad Prism v6.0.

T1 sequence (P60842 whole entry): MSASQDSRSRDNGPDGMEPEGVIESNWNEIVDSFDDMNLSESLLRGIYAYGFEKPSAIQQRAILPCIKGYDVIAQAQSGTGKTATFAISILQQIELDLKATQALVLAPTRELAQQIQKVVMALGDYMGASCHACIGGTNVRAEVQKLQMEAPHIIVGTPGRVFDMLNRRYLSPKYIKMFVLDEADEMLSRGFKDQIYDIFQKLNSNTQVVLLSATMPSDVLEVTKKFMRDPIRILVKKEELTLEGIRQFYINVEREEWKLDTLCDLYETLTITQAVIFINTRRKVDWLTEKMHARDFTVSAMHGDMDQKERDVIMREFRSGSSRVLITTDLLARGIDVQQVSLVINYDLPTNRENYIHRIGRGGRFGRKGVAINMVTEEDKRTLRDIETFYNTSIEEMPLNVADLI

Row | SMILES | inhibition of eIF4A duplex unwinding [1] | IC50 [2] | potency in the eIF4A ATPase assay (in words) ([2]; comparison within the series) | competition of fluorescent RNA off eIF4A [3] | IC50 [3]
1 | CCCCc1ccc(-c2ccc(-c3cc(C(=O)O)c4cc([N+](=O)[O-])ccc4n3)o2)cc1 [Compound 28, 2-(5-(4-butylphenyl)furan-2-yl)-6-nitroquinoline-4-carboxylic acid] | about four-fold more potent than compound 1; also recorded: inhibit eIF4A duplex unwinding | 8.6 ± 0.944 µM | most potent inhibitor of eIF4A ATPase activity; also recorded: over two-fold more potent than any other molecule previously produced in the series | able to compete the fluorescent RNA off of eIF4A; also recorded: about three-fold more potent than 1 | 58.3 ± 2.5 µM
2 | CCCCc1ccc(-c2ccc(-c3cc(C(=O)O)c4cc(Br)ccc4n3)o2)cc1 [Compound 1, 6-bromo-2-(5-(4-butylphenyl)furan-2-yl)quinoline-4-carboxylic acid] | inhibit eIF4A duplex unwinding | 26.6 ± 2.46 µM |  | able to compete the fluorescent RNA off of eIF4A | 161 ± 9.8 µM
